# Tests used:
# [1] = biological target: T1, Aspergillus fumigatus Amadoriase I variant SS03 (Ser67Cys + Pro121Cys), SEQ ID NO: 4 (Aspergillus fumigatus, UniProt O42629, P121C/S67C); assay: Steady-state kinetics of Amadoriase variant SS03 towards fructosyl-lysine (glucosone formation at 322 nm); format: biochemical; settings: apparent, fructosyl-lysine 0.05 mM to 2 mM, 10 mM Tris HCl pH 7.4, 20 mM o-Phenylenediamine, three independent experiments
# T1 construct: E. coli codon-optimised gene in bacterial (Novagen, pET-type) vector
# Experimental: (§1) Enzymatic activity was followed by a continuous assay that detects glucosone formation over time from fructosyl-lysine at 322 nm. The 200 μl reaction mixture contained 10 mM Tris HCl pH 7.4, 20 mM o-Phenylenediamine, 2 mM fructosyl-lysine. After 1 minute of pre-incubation, the reaction was started adding 4.5 μg of enzyme, and the increase in absorbance at 322 nm (glucosone ε322=149.25 M^−1cm^−1) was monitored in a Spark10M (Tecan).
# (§2) Apparent steady-state parameters for the enzymes over its natural substrate were determined by means of the assay described above, with fructosyl-lysine concentrations varied from 0.05 mM to 2 mM. Data points were obtained from three independent experiments. Kinetic parameters were calculated using a non-linear least-square fit of the data, and fitted with Eq. 1 (the Michaelis-Menten equation for hyperbolic substrate kinetics) using Hyperbola fit function of GraphPad Prism version 5.00 for Windows, GraphPad Software, La Jolla Calif. USA.
# (§3) [formula] in which v, Vmax, S, and Km represent the steady state reaction rate, maximum reaction rate, substrate concentration, and Michaelis-Menten constant for the substrate, respectively.
# [2] = biological target: T2, Aspergillus fumigatus Amadoriase I variant SS17 (Asp295Cys + Lys303Cys), SEQ ID NO: 6 (Aspergillus fumigatus, UniProt O42629, D295C/K303C); assay: Steady-state kinetics of Amadoriase variant SS17 towards fructosyl-lysine (glucosone formation at 322 nm); format: biochemical; settings: apparent, fructosyl-lysine 0.05 mM to 2 mM, 10 mM Tris HCl pH 7.4, 20 mM o-Phenylenediamine, three independent experiments
# T2 construct: E. coli codon-optimised gene in bacterial (Novagen, pET-type) vector
# Experimental: as §1, §2, §3
structure (smiles),measurement,setting,value
N[C@@H](CCCCNCC(=O)[C@@H](O)[C@H](O)[C@H](O)CO)C(=O)O [fructosyl-lysine],kcat,[1],21.90 ± 2.73 s⁻¹
same,kcat/Km,[1],64170 ± 25500 M⁻¹ s⁻¹
same,kcat,[2],22.91 ± 2.12 s⁻¹
same,kcat/Km,[2],33340 ± 10160 M⁻¹ s⁻¹

# Source: patent publication US11649440B2, “Thermostabilized Amadoriases and uses thereof” (FONDAZIONE ISTITUTO ITALIANO DI TECNOLOGIA, priority 2017, dated 2023)
